Key:
human orexin-1 receptor = target: T1, human orexin-1 receptor (Homo sapiens, UniProt O43613); experiment: Intracellular calcium measurements (FLIPR), antagonism of 10 nM orexin-A in CHO cells expressing the human orexin-1 receptor; type: cell-based; conditions: CHO cells expressing human orexin-1 receptor, agonist 10 nM orexin-A, read-out: OX1 IC50
T1 construct: expressed in transfected cells; host or cells: CHO cells (G418 selection)
T1 sequence (O43613 1-425): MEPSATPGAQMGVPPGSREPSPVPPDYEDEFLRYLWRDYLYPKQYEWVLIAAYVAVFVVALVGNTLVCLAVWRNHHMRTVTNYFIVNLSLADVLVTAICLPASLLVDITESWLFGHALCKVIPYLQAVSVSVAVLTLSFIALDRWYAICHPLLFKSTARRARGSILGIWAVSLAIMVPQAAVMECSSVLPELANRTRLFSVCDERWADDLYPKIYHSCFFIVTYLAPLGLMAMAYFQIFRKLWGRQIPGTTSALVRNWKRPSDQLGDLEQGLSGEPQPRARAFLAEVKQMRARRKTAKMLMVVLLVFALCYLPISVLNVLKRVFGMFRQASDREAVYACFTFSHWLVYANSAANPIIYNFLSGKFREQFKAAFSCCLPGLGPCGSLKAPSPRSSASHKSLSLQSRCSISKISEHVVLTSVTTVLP
Procedure: (§1) The orexin receptor antagonistic activity of the compounds of formula (I) is determined in accordance with the following experimental method.
(§2) • Intracellular Calcium Measurements:
(§3) Chinese hamster ovary (CHO) cells expressing the human orexin-1 receptor and the human orexin-2 receptor, respectively, are grown in culture medium (Ham F-12 with L-Glutamine) containing 300 μg/ml G418, 100 U/ml penicillin, 100 μg/ml streptomycin and 10% inactivated fetal calf serum (FCS). The cells are seeded at 80,000 cells/well into 96-well black clear bottom sterile plates (Costar) which have been precoated with 1% gelatine in Hanks' Balanced Salt Solution (HBSS). All reagents are from Gibco BRL. The seeded plates are incubated overnight at 37° C. in 5% CO2.
(§4) Human orexin-A as an agonist is prepared as 1 mM stock solution in methanol:water (1:1), diluted in HBSS containing 0.1% bovine serum albumin (BSA) and 2 mM HEPES for use in the assay at a final concentration of 10 nM.
(§5) Antagonists are prepared as 10 mM stock solution in DMSO, then diluted in 96-well plates, first in DMSO, then in HBSS containing 0.1% bovine serum albumin (BSA) and 2 mM HEPES.
(§6) On the day of the assay, 100 μl of loading medium (HBSS containing 1% FCS, 2 mM HEPES, 5 mM probenecid (Sigma) and 3 μM of the fluorescent calcium indicator fluo-3 AM (1 mM stock solution in DMSO with 10% pluronic acid) (Molecular Probes) is added to each well.
(§7) The 96-well plates are incubated for 60 min at 37° C. in 5% CO2. The loading solution is then aspirated and cells are washed 3 times with 200 μl HBSS containing 2.5 mM probenecid, 0.1% BSA, 2 mM HEPES. 100 μl of that same buffer is left in each well.
(§8) Within the Fluorescent Imaging Plate Reader (FLIPR, Molecular Devices), antagonists are added to the plate in a volume of 50 μl, incubated for 20 min and finally 100 μl of agonist is added. Fluorescence is measured for each well at 1 second intervals, and the height of each fluorescence peak is compared to the height of the fluorescence peak induced by 10 nM orexin-A with buffer in place of antagonist. For each antagonist, IC50 value (the concentration of compound needed to inhibit 50% of the agonistic response) is determined. Antagonistic activities of compounds are in the nanomolar range with respect to OX1 and OX2 receptors.

human orexin-2 receptor = target: T2, human orexin-2 receptor (Homo sapiens, UniProt O43614); experiment: Intracellular calcium measurements (FLIPR), antagonism of 10 nM orexin-A in CHO cells expressing the human orexin-2 receptor; type: cell-based; conditions: CHO cells expressing human orexin-2 receptor, agonist 10 nM orexin-A, read-out: OX2 IC50
T2 construct: expressed in transfected cells; host or cells: CHO cells (G418 selection)
T2 sequence (O43614 1-444): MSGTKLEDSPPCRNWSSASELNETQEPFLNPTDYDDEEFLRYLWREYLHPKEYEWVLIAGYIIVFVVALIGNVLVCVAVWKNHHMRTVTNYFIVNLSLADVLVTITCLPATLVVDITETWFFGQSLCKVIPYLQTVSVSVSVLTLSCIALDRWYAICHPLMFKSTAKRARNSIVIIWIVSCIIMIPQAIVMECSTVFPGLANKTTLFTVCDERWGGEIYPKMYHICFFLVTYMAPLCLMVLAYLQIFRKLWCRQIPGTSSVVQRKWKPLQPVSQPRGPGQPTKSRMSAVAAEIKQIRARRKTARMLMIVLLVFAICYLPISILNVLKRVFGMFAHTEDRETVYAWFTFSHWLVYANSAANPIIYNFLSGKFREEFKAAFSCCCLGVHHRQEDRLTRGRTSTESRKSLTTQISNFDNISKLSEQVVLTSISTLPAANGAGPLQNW
Procedure: as §1, §2, §3, §4, §5, §6, §7, §8

## CCN(Cc1cncc(C)n1)C(=S)CN(c1cc(N(C)C)ccc1Cl)S(=O)(=O)c1ccc(OC)c(OC)c1 [Example 14, 2-[(2-Chloro-5-dimethylamino-phenyl)-(3,4-dimethoxy-benzenesulfonyl)-amino]-N-ethyl-N-(6-methyl-pyrazin-2-ylmethyl)-thioacetamide]
Human orexin-1 receptor
  IC50: 0.015 µM
Human orexin-2 receptor
  IC50: 0.012 µM

## CCN(Cc1cccc(C)n1)C(=O)CN(c1cc2c(C)nsc2cc1Cl)S(=O)(=O)c1ccc(OC)c(OC)c1 [Example 21, 2-[(6-Chloro-3-methyl-benzo[d]isothiazol-5-yl)-(3,4-dimethoxy-benzenesulfonyl)-amino]-N-ethyl-N-(6-methyl-pyridin-2-ylmethyl)-acetamide]
Human orexin-1 receptor
  IC50: 0.008 µM
Human orexin-2 receptor
  IC50: 0.007 µM

## CCN(CC)C(=O)CN(c1ccc(Cl)cc1C#N)S(=O)(=O)c1ccc(OC)c(OC)c1 [Example 27, 2-[(4-Chloro-2-cyano-phenyl)-(3,4-dimethoxy-benzenesulfonyl)-amino]-N,N-diethyl-acetamide]
Human orexin-1 receptor
  IC50: 0.18 µM
Human orexin-2 receptor
  IC50: 0.002 µM

## COc1ccc(S(=O)(=O)N(CC(=O)N(CCO)Cc2ccccn2)c2cc(N(C)C)ccc2Cl)cc1OC [Example 55, 2-[(2-Chloro-5-dimethylamino-phenyl)-(3,4-dimethoxy-benzenesulfonyl)-amino]-N-(2-hydroxy-ethyl)-N-pyridin-2-ylmethyl-acetamide]
Human orexin-1 receptor
  IC50: 0.063 µM
Human orexin-2 receptor
  IC50: 0.007 µM

## CCN(CC)C(=O)CN(c1cc(N(C)C)ccc1C#N)S(=O)(=O)c1ccc(OC)c(OC)c1 [Example 58, 2-[(2-Cyano-5-dimethylamino-phenyl)-(3,4-dimethoxy-benzenesulfonyl)-amino]-N,N-diethyl-acetamide]
Human orexin-1 receptor
  IC50: 0.166 µM
Human orexin-2 receptor
  IC50: 0.01 µM

— patent US8003654B2, “N-glycinsulfonamide derivatives and uses as orexin receptor antagonists” (Actelion Pharmaceuticals Ltd., priority 2006, dated 2011)
